Biological target: T1, recombinant MtbUGM (Mycobacterium tuberculosis, UniProt P9WIQ1)
T1 construct: made in house
Experiment: biochemical
Conditions: carboxylic acid replacements (R3)

T1 sequence (P9WIQ1 whole entry): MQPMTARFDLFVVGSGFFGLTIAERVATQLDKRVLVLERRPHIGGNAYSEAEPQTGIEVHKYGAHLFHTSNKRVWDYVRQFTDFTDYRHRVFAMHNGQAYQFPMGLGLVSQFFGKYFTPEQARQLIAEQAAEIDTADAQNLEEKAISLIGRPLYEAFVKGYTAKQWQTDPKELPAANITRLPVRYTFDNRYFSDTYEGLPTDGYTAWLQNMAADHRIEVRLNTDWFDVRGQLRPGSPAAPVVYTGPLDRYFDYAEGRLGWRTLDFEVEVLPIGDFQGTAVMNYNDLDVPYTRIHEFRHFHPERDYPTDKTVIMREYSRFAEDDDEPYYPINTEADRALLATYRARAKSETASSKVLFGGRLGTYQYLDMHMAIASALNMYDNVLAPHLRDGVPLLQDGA

**Q.** With `COC(=O)CC1Sc2nnc(Cc3ccc(Br)cc3)n2N=C1c1ccc(Cl)cc1` (stereo not shown) [Compound 14, Methyl-2-(3-(4-bromobenzyl)-6-(4-chlorophenyl)-7H-[1,2,4]triazolo[3,4-b][1,3,4]thiadiazin-7-yl)acetate] as the molecule, how does the “MtbUGM inhibition (in words)” value read?
**A.** neither the ester nor amide variants effectively inhibit MtbUGM

**Q.** With `C=CCNC(=O)CC1Sc2nnc(Cc3ccc(Br)cc3)n2N=C1c1ccc(Cl)cc1` (stereo not shown) [Compound 35, N-allyl-2-(3-(4-bromobenzyl)-6-(4-chlorophenyl)-7H-[1,2,4]triazolo[3,4-b][1,3,4]thiadiazin-7-yl)acetamide] as the molecule, how does the “MtbUGM inhibition (in words)” value read?
**A.** neither the ester nor amide variants effectively inhibit MtbUGM

**Q.** How did the “MtbUGM inhibition (in words)” value turn out when `COC(=O)CC1Sc2nnc(-c3cccs3)n2N=C1c1ccc(Cl)cc1` (stereo not shown) [Compound 32, Methyl-2-(6-(4-chlorophenyl)-3-(thiophen-2-yl)-7H-[1,2,4]triazolo[3,4-b][1,3,4]thiadiazin-7-yl)acetate] was run?
**A.** neither the ester nor amide variants effectively inhibit MtbUGM

**Q.** For `C=CCNC(=O)CC1Sc2nnc(-c3cccs3)n2N=C1c1ccc(Cl)cc1` (stereo not shown) [Compound 34, N-allyl-2-(6-(4-chlorophenyl)-3-(thiophen-2-yl)-7H-[1,2,4]triazolo[3,4-b][1,3,4]thiadiazin-7-yl)acetamide], which “MtbUGM inhibition (in words)” value is on record?
**A.** neither the ester nor amide variants effectively inhibit MtbUGM

Source: patent publication US10080757B2 (WISCONSIN ALUMNI RESEARCH FOUNDATION, priority 2016, dated 2018)
